According to ChEMBL document CHEMBL5257089, “Gamabufotalin Induces Apoptosis and Cytoprotective Autophagy through the mTOR Signaling Pathway in Hepatocellular Carcinoma” (J Nat Prod, 2023):
Calls of active or inactive are those of the source. The calls are words filed in the database; no cut-off is given here.

Columns and labels:
[1] = system: Hep 3B2; experiment: Induction of autophagic flux in human Hep3B cells assessed as rescue of LC3-I accumulation at 10 uM incubated for 48 hrs in presence of gamabufotalin by Western blot analysis; type: functional, cell-based
[2] = system: Hep 3B2; experiment: Induction of apoptosis in human Hep3B cells assessed as late apoptotic cells at 10 nM incubated for 48 hrs by Annexin V-FITC/PI staining based flow cytometry method (reference value: 3.5%); type: functional
[3] = system: Huh-7; experiment: Induction of apoptosis in human Huh-7 cells assessed as increase in bax level at 10 nM incubated for 48 hrs in presence of gamabufotalin by immunoblot analysis; type: functional, cell-based
[4] = system: Huh-7; experiment: Induction of autophagic flux in human Huh-7 cells harbouring mCherry-egfp-LC3 assessed as increase in yellow puncta ratio at 10 nM by fluorescence imaging based assay; type: functional, cell-based
[5] = system: Huh-7; experiment: Induction of autophagy in human Huh-7 cells assessed as rescue of mTOR phosphorylation level at upto 10 nM incubated for 48 hrs in presence of gamabufotalin by immunoblot method; type: functional, cell-based
[6] = system: Hep 3B2; experiment: Antitumor activity against human Hep3B cells xenografted in nude mouse model assessed as downregulation of ULK1 phosphorylation expression expression at 5 mg/kg,ip administered every second day for 3 weeks by Western blot analysis; type: functional, organism-based
[7] = Toxicity in mouse assessed as effect on serum BUN level at 5 mg/kg,ip administered every second day for 3 weeks by H and E staining based microscopic method; type: organism-based; conditions: in vivo, 504 h
[8] = system: Huh-7; experiment: Induction of apoptosis in human Huh-7 cells assessed as viable cells at 25 nM measured after 48 hrs in presence of z-VAD-FMK by annexin V-FITC/Propidium iodide staining based flow cytometric analysis (reference value: 91.7%); type: functional; conditions: read-out: Activity
[9] = system: Hep 3B2; experiment: Antitumor activity against human Hep3B cells xenografted in nude mouse model assessed as reduction in Ki-67 index at 5 mg/kg,ip administered every second day for 3 weeks by immunohistochemical analysis; type: functional, organism-based
[10] = system: Huh-7; experiment: Induction of autophagy in human Huh-7 cells harbouring mCherry-egfp-LC3 assessed as reduction in red puncta ratio at 25 nM incubated for 15 mins in presence of 4,6-dimorpholino-N-(4-nitrophenyl)-1,3,5-triazin-2-amine by laser scanning confocal microscopic analysis; type: functional, cell-based
[11] = system: Hep 3B2; experiment: Antitumor activity against human Hep3B cells xenografted in nude mouse model assessed as downregulation of m-TOR phosphorylation expression expression at 5 mg/kg,ip administered every second day for 3 weeks by Western blot analysis; type: functional, organism-based
[12] = system: Hep 3B2; experiment: Induction of apoptosis in human Hep3B cells assessed as early apoptotic cells at 15 nM incubated for 48 hrs by Annexin V-FITC/PI staining based flow cytometry method (reference value: 3.9%); type: functional
[13] = system: Hep 3B2; experiment: Induction of apoptosis in human Hep3B cells assessed as increase in cleaved bax level at 25 nM incubated for 48 hrs in presence of chloroquine by immunoblot analysis; type: functional, cell-based
[14] = system: Huh-7; experiment: Induction of autophagic flux in human Huh-7 cells assessed as increase in intracellular vesicles at 25 nM incubated for 48 hrs by transmission electron microscopic analysis; type: functional, cell-based
[15] = system: Huh-7; experiment: Induction of apoptosis in human Huh-7 cells assessed as necrotic cells at 25 nM measured after 48 hrs by annexin V-FITC/Propidium iodide staining based flow cytometric analysis (reference value: 0.0%); type: functional
[16] = system: Hep 3B2; experiment: Induction of morphological changes in human Hep3B cells assessed as adherent cells at upto 25 nM incubated for 48 hrs by bright field imaging analysis; type: functional, cell-based
[17] = system: Hep 3B2; experiment: Induction of autophagy in human Hep3B cells assessed as restoration of ULK1 phosphorylation expression at 25 uM incubated for 48 hrs in presence of 4,6-dimorpholino-N-(4-nitrophenyl)-1,3,5-triazin-2-amine by immunoblot analysis; type: functional, cell-based
[18] = system: Hep 3B2; experiment: Induction of apoptosis in human Hep3B cells assessed as necrotic cells at 25 nM incubated for 48 hrs in presence of 4,6-dimorpholino-N-(4-nitrophenyl)-1,3,5-triazin-2-amine by Annexin V-FITC/PI staining based flow cytometry method (reference value: 0.7%); type: functional
[19] = system: Hep 3B2; experiment: Induction of apoptosis in human Hep3B cells assessed as increase in cleaved PARP level at 25 nM incubated for 48 hrs in presence of chloroquine by immunoblot analysis; type: functional, cell-based
[20] = system: Hep 3B2; experiment: Induction of apoptosis in human Hep3B cells assessed as viable cells at 25 nM incubated for 48 hrs by Annexin V-FITC/PI staining based flow cytometry method (reference value: 94.0%); type: functional; conditions: read-out: Activity
[21] = system: Huh-7; experiment: Induction of autophagic flux in human Huh-7 cells assessed as increase in LC3-II expression at upto 25 nM incubated for 48 hrs by Western blot analysis; type: functional, cell-based
[22] = system: Huh-7; experiment: Induction of apoptosis in human Huh-7 cells assessed as early apoptotic cells at 25 nM incubated for 48 hrs in presence of 4,6-dimorpholino-N-(4-nitrophenyl)-1,3,5-triazin-2-amine by Annexin V-FITC/PI staining based flow cytometry method (reference value: 4.3%); type: functional
[23] = system: Huh-7; experiment: Induction of apoptosis in human Huh-7 cells assessed as early apoptotic cells at 25 nM measured after 48 hrs in presence of z-VAD-FMK by annexin V-FITC/Propidium iodide staining based flow cytometric analysis (reference value: 2.2%); type: functional
[24] = system: Hep 3B2; experiment: Induction of apoptosis in human Hep3B cells assessed as necrotic cells at 25 nM incubated for 48 hrs by Annexin V-FITC/PI staining based flow cytometry method (reference value: 0.7%); type: functional
[25] = system: Huh-7; experiment: Induction of autophagy in human Huh-7 cells assessed as reduction in ULK1 phosphorylation level incubated for 48 hrs by immunoblot method; type: functional, cell-based; conditions: dose 0-25 nM
[26] = system: Hep 3B2; experiment: Induction of apoptosis in human Hep3B cells assessed as upregulation of bax level […] incubated for 48 hrs in presence of 4,6-dimorpholino-N-(4-nitrophenyl)-1,3,5-triazin-2-amine by immunoblot analysis; type: functional, cell-based
[27] = system: Hep 3B2; experiment: Induction of autophagy in human Hep3B cells assessed as downregulation of LC3II/LC3I ratio at 25 uM incubated for 48 hrs in presence of 4,6-dimorpholino-N-(4-nitrophenyl)-1,3,5-triazin-2-amine by immunoblot analysis; type: functional, cell-based
[28] = system: Hep 3B2; experiment: Induction of autophagic flux in human Hep3B cells assessed as increase in intracellular vesicles at 25 nM incubated for 48 hrs by transmission electron microscopic analysis; type: functional, cell-based
[29] = Toxicity in mouse assessed as effect on heart at 5 mg/kg,ip administered every second day for 3 weeks by H and E staining based microscopic method; type: organism-based; conditions: in vivo, 504 h
[30] = system: Hep 3B2; experiment: Induction of apoptosis in human Hep3B cells assessed as necrotic cells at 25 nM incubated for 48 hrs by Annexin V-FITC/PI staining based flow cytometry method (reference value: 1.2%); type: functional
[31] = system: Huh-7; experiment: Induction of autophagic flux in human Huh-7 cells assessed as rescue of p62 at 25 uM incubated for 48 hrs in presence of chloroquine by Western blot analysis; type: functional, cell-based
[32] = system: Huh-7; experiment: Induction of apoptosis in human Huh-7 cells assessed as late apoptotic cells at 25 nM measured after 48 hrs by annexin V-FITC/Propidium iodide staining based flow cytometric analysis (reference value: 6.1%); type: functional
[33] = Toxicity in mouse assessed as effect on serum ALT level at 5 mg/kg,ip administered every second day for 3 weeks by H and E staining based microscopic method; type: organism-based; conditions: in vivo, 504 h

For `CCN(CC)CCCC(C)Nc1ccnc2cc(Cl)ccc12` (stereo not drawn) [CHLOROQUINE], the Activity [1] was “Active”, the Activity [2] was 4.4% and the Activity [3] was “Active”. The Activity [4] was “Active” and the Activity [5] was “Active”.

With `C[C@]12CC[C@H](O)C[C@H]1CC[C@@H]1[C@@H]2[C@H](O)C[C@]2(C)[C@@H](c3ccc(=O)oc3)CC[C@]12O` [GAMABUFOTALIN] the Activity [6] was “Active”, the Activity [7] was “Non-Toxic” and the viability at 0.025 µM [8] was 89%. The Activity [9] was “Active”, the Activity [10] was “Active” and the Activity [11] was “Active”. The Activity [12] was 6.8%, the Activity [13] was “Active” and the Activity [14] was “Active”. For the same compound, the Activity [15] was 1.2%, the Activity [16] was “Active” and the Activity [17] was “Active”. The Activity [18] was 1.7%, the Activity [19] was “Active” and the viability at 0.025 µM [20] was 71.4%. For the same compound, the Activity [21] was “Active”, the Activity [22] was 14.9% and the Activity [23] was 3.3%. The Activity [24] was 0.5%, the Activity [25] was “Dose-Dependent Effect” and the Activity [26] was “Active”. The Activity [27] was “Active”, the Activity [28] was “Active” and the Activity [29] was “Non-Toxic”. The Activity [30] was 0.6%, the Activity [31] was “Active” and the Activity [32] was 20.3%. The Activity [33] was “Non-Toxic”.
